Experimental data from US8946441B2, “Polymorphs of an active pharmaceutical ingredient” (Sandoz AG, priority 2010, dated 2015).
In brackets after ≈: the same amount, converted by molar mass. One block for each molecule: values may come before it.

Columns and labels:
[1] = Polymorphic stability on storage; assay type: physicochemical
[2] = Moisture sorption/desorption isotherm (SPS-11 moisture sorption analyzer); assay type: physicochemical; details: for hygroscopicity: 0% to 90% RH, 25°C
Description: The moisture sorption/desorption isotherms were recorded with a SPS-11 moisture sorption analyzer (MD Messtechnik, Ulm, D). […] The equilibrium condition for each step was set to a mass constancy of ±0.01% over 30 min. The temperature was 25±0.1° C.

[3] = form A, prior art references (EP1020454, US 7,361,676); cited from earlier work
[4] = Solubility determination of form I and form A in methanol/water (1:1 v/v), UV-spectrophotometry at 314 nm; assay type: physicochemical; details: MeOH/H2O 50%:50% v/v, 5 to 180 min, FIG. 8
Description: 25 mg of Febuxostat form I or form A, obtained according to the procedure described in EP1020454 were stirred in a mixture of 20 ml of methanol and water (1:1 v/v). 1 ml of the suspension was withdrawn from each suspension within a time range of 5 to 180 min with the aid of a volumetric pipette and filtered. The filtrate was diluted to 25 ml with a 50% (v/v) methanol/water mixture and the concentration was determined by UV-spectrophotometry at 314 nm (apparatus: Shimadzu UV 1800).
A calibration curve was determined based on a series of known concentrations in the same solvent system.

[5] = Kinetics of conversion to hemihydrate G in a mix of methanol and water; assay type: physicochemical
Text: The solvent system methanol/water represents a model for the dissolution of solid states of Febuxostat, with the hemihydrate G representing a thermodynamic very stable form with low solubility in aqueous systems.

[6] = Water content according to Karl Fischer; assay type: physicochemical; details: stored at 20° C., ambient pressure, 0% up to 90% relative humidity

hygroscopicity [2]: non hygroscopic
water uptake ([2]; up to a relative humidity of 90%): no significant water uptake
SMILES: Cc1nc(-c2ccc(OCC(C)C)c(C#N)c2)sc1C(=O)O [Form II, 2-(3-cyano-4-isobutyloxy-phenyl)-4-methyl-5-thiazolecarboxylic acid]
polymorphic stability on storage ([1]; ambient temperature for 6 weeks): does not convert to another polymorphic form

SMILES: Cc1nc(-c2ccc(OCC(C)C)c(C#N)c2)sc1C(=O)O [form A, 2-(3-cyano-4-isobutyloxy-phenyl)-4-methyl-5-thiazolecarboxylic acid]
solubility [3]: 0.22 mg/mL (≈ 695 µM)

increase in solubility compared to form A [4]: approximately 20%
kinetics of conversion to hemihydrate G compared to anhydrate A [5]: slower
water content (KF) [6]: below 0.1%
hygroscopicity ([2]; listed as polymorph I): nonhygroscopic
SMILES: Cc1nc(-c2ccc(OCC(C)C)c(C#N)c2)sc1C(=O)O [form I, 2-(3-cyano-4-isobutyloxy-phenyl)-4-methyl-5-thiazolecarboxylic acid]
polymorphic stability on storage ([1]; stress conditions, 40° C. for 3 months): does not change its polymorphic state properties

stability on storage ([1]; ambient conditions in open atmosphere for 5 weeks): stable
SMILES: Cc1nc(-c2ccc(OCC(C)C)c(C#N)c2)sc1C(=O)O [tert.-amylalcohol solvate, 2-(3-cyano-4-isobutyloxy-phenyl)-4-methyl-5-thiazolecarboxylic acid]
